Source: US10632064B2, “Topical regional neuro affective therapy with cannabinoid combination products” (Afgin Pharma, LLC, priority 2015, dated 2020)
Entries after “also recorded” stand apart in the source; their conditions may differ.

Legend:
Type in all cases: in vivo, human
[1] = system: patients having acute and chronic neurological and psychiatric conditions; assay: Example 12: topical CBD from crystalline powder (Table 6)
Description: In Example 12, 19 patients having acute and chronic neurological and psychiatric conditions were treated with topical CBD at the back of the neck. The treatment comprised a dose of either 15 mg or 30 mg cannabinoid drugs, with the majority being CBD, the source of the CBD being CBD crystalline powder oil commercially available from CannaVest.

[2] = system: patient with stroke and focal seizures; assay: Example 16: 1 g of 1.6% CBD cream nuchal, stroke and focal seizures, EEG
Description: In Example 16, a patient presented with stroke and focal seizures. […]. FIG. 9 is a baseline EEG taken at the initial examination, showing left fronto-central seizure focus.
The patient was treated with 1 g of 1.6% CBD cream to the nuchal (back of the neck). […] They were able to return to work as a beterinarian and do surgery, which was unexpected as their Rehab MD had previously advised them that we would have to retire.

[3] = system: person, cerebellar posterior fossa cyst, generalized seizure; assay: Example 13: 2% CBD cream to the nuchal region, absence seizures, EEG
Description: In Example 13, person suffering from a cerebellar posterior fossa cyst, generalized seizure manifesting as standing and staring and unresponsive was treating in accordance with the present invention. FIG. 2 is an EEG showing a baseline EEG of the patient of Example 13. […] Previously, ethosuximide had been recommended for treatment, but the parents were reluctant to have the patient on a systemic […] therapy in view of the potential side effects. The patient was treated with a 2% CBD cream to the nuchal (back of the neck) region twice a day. After two weeks, the dosage regimen was changed to one application per day.

[4] = twice a day CBD treatment to the nuchal region

## C=C(C)[C@@H]1CCC(C)=C[C@H]1c1c(O)cc(CCCCC)cc1O [CBD, cannabidiol]
[1]; 0.75% topical CBD to neck and 1% to back
  result in words (Table 6): 1% to back with patient feeling more alert
[1]; 1% topical CBD to neck and back
  time after application at which the effect was seen: ≤ 1 min
[1]; 1% topical CBD, one patient per entry
  result in words (Table 6): became more alert and spontaneous; also recorded: spasticity improved with better movement of; also recorded: improved pain within three minutes. Stated; also recorded: worked better than oil-based CBD they had; also recorded: focus, clearer thinking, and reduced anxiety
[1]; 1% topical CBD, single patients
  pain decrease: 50% and pain 20% within a few minutes. and additional 30% from prior baseline.
[1]; 1.5% topical (powdered) CBD cream
  result in words (Table 6): 1.5% topical CBD reduced neck tension and relieved neuropathic pain. Had been using and relieved anxiety and improved demeanor.
[1]; 2% topical CBD cream
  result in words (Table 6): relieved back and lower extremity; also recorded: relieved neck pain and tension from
[1]; 2% topical CBD cream to back of neck, from 8 of 10, in few minutes
  neck pain and tension level after treatment: 8 of 10 to 2 in few minutes.
[2]; 10 minutes after application of 1 g of 1.6% CBD cream (FIG. 10)
  EEG after CBD dose: attenuated seizure focus
[2]; [4]
  clinical result: remains seizure free; also recorded: helping their spastic weakness from the stroke
  time seizure free after initiation of treatment: about 9 months
[3]; 2% CBD cream to nuchal region twice a day
  clinical findings at the two week check-up: No seizures were noted; also recorded: no long bed wetting; also recorded: reading levels had increased two levels
[3]; 5 minutes after the start of therapy (FIG. 3)
  EEG post-treatment: attenuated seizure focus
[3]; 8 minutes after the start of therapy (FIG. 4)
  EEG post-treatment: further attenuation of seizure focus
